Data taken from US10689354B2, “Aminoazole derivative” (Teijin Pharma Limited, priority 2015, dated 2020).

Tests used:
[1] = biological target: T1, human androgen receptor (Homo sapiens, UniProt P10275); test: Reporter assay of an androgen receptor responsive sequence (luciferase, transiently transfected HEK293 cells); type: cell-based; settings: 24 hours incubation, relative to activity of 100 nM DHT, read-out: AR transcriptive activity (pEC50) (converted)
T1 construct: expressed in transfected cells; host or cells: HEK293
T1 sequence (P10275 1-920): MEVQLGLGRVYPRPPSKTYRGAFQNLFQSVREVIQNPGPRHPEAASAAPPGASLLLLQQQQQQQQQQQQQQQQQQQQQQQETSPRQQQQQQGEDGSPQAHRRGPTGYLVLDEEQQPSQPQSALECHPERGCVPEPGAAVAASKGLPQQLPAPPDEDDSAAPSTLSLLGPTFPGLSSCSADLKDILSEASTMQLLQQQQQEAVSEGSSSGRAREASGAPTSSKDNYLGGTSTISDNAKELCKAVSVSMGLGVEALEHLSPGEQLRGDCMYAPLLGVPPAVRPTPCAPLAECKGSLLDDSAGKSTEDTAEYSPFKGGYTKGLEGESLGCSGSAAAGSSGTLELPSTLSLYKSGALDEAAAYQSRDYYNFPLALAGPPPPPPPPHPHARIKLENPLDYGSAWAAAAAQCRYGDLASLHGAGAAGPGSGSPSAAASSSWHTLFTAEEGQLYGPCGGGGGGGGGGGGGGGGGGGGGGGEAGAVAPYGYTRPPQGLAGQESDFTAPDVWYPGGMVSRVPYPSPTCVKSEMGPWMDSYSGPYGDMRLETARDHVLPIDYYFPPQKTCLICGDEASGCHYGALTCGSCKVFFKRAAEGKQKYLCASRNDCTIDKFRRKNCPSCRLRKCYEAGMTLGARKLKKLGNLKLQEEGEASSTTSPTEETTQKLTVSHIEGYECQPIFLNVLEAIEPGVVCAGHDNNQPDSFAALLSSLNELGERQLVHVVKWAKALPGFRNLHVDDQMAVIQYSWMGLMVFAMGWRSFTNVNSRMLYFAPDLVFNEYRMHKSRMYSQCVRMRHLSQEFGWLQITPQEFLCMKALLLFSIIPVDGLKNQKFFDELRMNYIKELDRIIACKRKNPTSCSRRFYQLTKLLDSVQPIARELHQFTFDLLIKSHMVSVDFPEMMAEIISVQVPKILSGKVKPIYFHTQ
In short: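 HEK293 cells transiently transfected for 3 h with ARE-firefly luciferase, full-length human AR and TK-Renilla plasmids, then exposed to compound for 24 h at 37 °C in 5% charcoal-treated FBS/DMEM. Dual-Glo luminescence read; pEC50 from 4-parameter fit relative to 100 nM DHT.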

[2] = biological target: T2, androgen receptor (AR-LBD) (Rattus norvegicus, UniProt P15207); test: Evaluation of androgen receptor affinity (PolarScreen Androgen Receptor Competitor Assay Kit, Red; fluorescence polarization); settings: 22° C. for 5 hours, relative to binding rate of 1 μM DHT, read-out: AR affinity (pEC50) (converted)
T2 construct: 5 μL of 2×AR-LBD/Fluoromone AL Red Complex contained in the kit; purchased Invitrogen
T2 sequence (P15207 651-882 limits assumed): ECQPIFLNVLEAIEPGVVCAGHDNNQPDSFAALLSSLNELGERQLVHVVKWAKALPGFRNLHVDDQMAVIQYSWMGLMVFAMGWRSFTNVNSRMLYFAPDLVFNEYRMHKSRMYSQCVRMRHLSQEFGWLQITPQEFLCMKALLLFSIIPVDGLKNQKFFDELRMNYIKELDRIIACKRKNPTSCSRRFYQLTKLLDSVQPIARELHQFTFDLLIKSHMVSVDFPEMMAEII
In short: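 pEC50 values reflect tracer displacement from AR-LBD (Fluoromone AL Red complex) measured by fluorescence polarization after 5 h at 22° C, normalized to 1 μM DHT and fitted with a 4-parameter model.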

SMILES | EC50 [1] [µM] | EC50 [2] [µM]
Cc1sc(N(CCc2ccc(OC(F)F)cc2)Cc2ccc(F)cc2)nc1C(=O)NS(C)(=O)=O [Compound 159, 2-[2-[4-(difluoromethoxy)phenyl]ethyl-[(4-fluorophenyl)methyl]amino]-5-methyl-N-methylsulfonyl-thiazole-4-carboxamide] | 0.398 | 0.0631
Cc1sc(N(Cc2ccc(F)cc2)c2ccc(C#N)cc2)nc1C(=O)NS(=O)(=O)Cc1cccnc1 [Compound 122, 2-[4-cyano-N-[(4-fluorophenyl)methyl]anilino]-5-methyl-N-(3-pyridylmethylsulfonyl)thiazole-4-carboxamide] | 0.02 | 0.0251
COCCCS(=O)(=O)NC(=O)c1nc(N(Cc2ccccc2)c2ccc(C#N)cc2)sc1C1CC1 [Compound 664, 2-(N-benzyl-4-cyano-anilino)-5-cyclopropyl-N-(3-methoxypropylsulfonyl)thiazole-4-carboxamide] | > 10 | 0.158
Cc1sc(N(Cc2ccc(OC(F)(F)F)cc2)c2ccc(C#N)cc2)nc1C(=O)NS(=O)(=O)Cc1cccnc1 [Compound 121, 2-[4-cyano-N-[[4-(trifluoromethoxy)phenyl]methyl]anilino]-5-methyl-N-(3-pyridylmethylsulfonyl)thiazole-4-carboxamide] | 0.0501 | 0.0251
COCCCS(=O)(=O)NC(=O)c1nc(N(Cc2cnc(C(F)(F)F)c(Cl)c2)c2ccc(C#N)cc2)sc1C [Compound 531, 2-[N-[[5-chloro-6-(trifluoromethyl)-3-pyridyl]methyl]-4-cyano-anilino]-N-(3-methoxypropylsulfonyl)-5-methyl-thiazole-4-carboxamide] | 1 | 0.1
COCCCS(=O)(=O)NC(=O)c1nc(N(Cc2ccc(C(F)(F)F)nc2)c2ccc(C#N)cc2)sc1C1CC1 [Compound 663, 2-[4-cyano-N-[[6-(trifluoromethyl)-3-pyridyl]methyl]anilino]-5-cyclopropyl-N-(3-methoxypropylsulfonyl)thiazole-4-carboxamide] | > 10 | 0.251
Cc1sc(N(Cc2ccc(C(F)(F)F)nc2)c2ccc(C#N)cc2)nc1C(=O)NS(C)(=O)=O [Compound 154, 2-[4-cyano-N-[[6-(trifluoromethyl)-3-pyridyl]methyl]anilino]-5-methyl-N-methylsulfonyl-thiazole-4-carboxamide] | 0.2 | 0.2
Cc1sc(N(CCC2CCCC2O)c2ccc(C#N)cc2)nc1C(=O)NS(C)(=O)=O (stereo not shown) [Compound 406, 2-[4-cyano-N-[2-(2-hydroxycyclopentyl)ethyl]anilino]-5-methyl-N-methylsulfonyl-thiazole-4-carboxamide] | 2.51 | 0.794
[2H]c1c([2H])c([2H])c(C([2H])([2H])N(c2ccc(C#N)cc2)c2nc(C(=O)NS(C)(=O)=O)c(C)s2)c([2H])c1[2H] [Compound 388, 2-(4-cyano-N-[dideuterio-(2,3,4,5,6-pentadeuteriophenyl)methyl]anilino)-5-methyl-N-methylsulfonyl-thiazole-4-carboxamide] | 0.0631 | 0.0501
Cc1sc(N(Cc2ccccc2)c2ccc(C#N)cc2)nc1C(=O)NS(=O)(=O)CCC(F)(F)F [Compound 387, 2-(N-benzyl-4-cyano-anilino)-5-methyl-N-(3,3,3-trifluoropropylsulfonyl)thiazole-4-carboxamide] | 0.398 | 0.0631

Results, then the molecule that gave them:

EC50 [1] [µM] | EC50 [2] [µM] | SMILES
0.251 | 0.0794 | COc1ccccc1CN(c1ccc(C#N)cc1)c1nc(C(=O)NS(C)(=O)=O)c(Cl)s1 [Example 270, 5-chloro-2-[4-cyano-N-[(2-methoxyphenyl)methyl]anilino]-N-methylsulfonyl-thiazole-4-carboxamide]
1.26 | 0.1 | COCCCS(=O)(=O)NC(=O)c1nc(N(CCc2ccc(C#N)cc2)Cc2ccc(F)cc2)oc1C [Compound 556, 2-[2-(4-cyanophenyl)ethyl-[(4-fluorophenyl)methyl]amino]-N-(3-methoxypropylsulfonyl)-5-methyl-oxazole-4-carboxamide]
0.316 | 0.0251 | Cc1sc(N(Cc2ccc(OC(F)(F)F)cc2)c2ccc(C#N)cc2)nc1C(=O)NS(=O)(=O)CCCO [Example 200, 2-[4-cyano-N-[[4-(trifluoromethoxy)phenyl]methyl]anilino]-N-(3-hydroxypropylsulfonyl)-5-methyl-thiazole-4-carboxamide]
> 10 | 0.2 | Cc1cc(CN(CCc2ccc(OC(F)(F)F)cc2)c2nc(C(=O)NS(C)(=O)=O)c(C)s2)no1 [Compound 509, 5-methyl-2-[(5-methylisoxazol-3-yl)methyl-[2-[4-(trifluoromethoxy)phenyl]ethyl]amino]-N-methylsulfonyl-thiazole-4-carboxamide]
0.501 | 0.0398 | Cc1sc(N(Cc2ccccc2)c2ccc(C#N)cc2)nc1C(=O)NS(=O)(=O)Cc1ccccc1 [Compound 374, 2-(N-benzyl-4-cyano-anilino)-N-benzylsulfonyl-5-methyl-thiazole-4-carboxamide]
0.794 | 0.0501 | Cc1sc(N(CCc2ccc(Cl)cc2)CC[C@H]2CCCC[C@@H]2O)nc1C(=O)NS(C)(=O)=O (racemic) [Compound 146, 2-[2-(4-chlorophenyl)ethyl-[2-[trans-2-hydroxycyclohexyl]ethyl]amino]-5-methyl-N-methylsulfonyl-thiazole-4-carboxamide]
0.316 | 0.0501 | Cc1sc(N(Cc2ccc(-c3ccc(F)cc3)cc2)c2ccc(C#N)cc2)nc1C(=O)NS(C)(=O)=O [Compound 141, 2-[4-cyano-N-[[4-(4-fluorophenyl)phenyl]methyl]anilino]-5-methyl-N-methylsulfonyl-thiazole-4-carboxamide]
0.501 | 1 | Cc1nc(CN(c2ccc(C#N)cc2)c2nc(C(=O)NS(C)(=O)=O)c(C)s2)cs1 [Compound 40, 2-[4-cyano-N-[(2-methylthiazol-4-yl)methyl]anilino]-5-methyl-N-methylsulfonyl-thiazole-4-carboxamide]
0.631 | 0.398 | Cc1sc(N(Cc2ccccc2)c2ccc(C(F)(F)F)nc2)nc1C(=O)NS(C)(=O)=O [Example 223, 2-[benzyl-[6-(trifluoromethyl)-3-pyridyl]amino]-5-methyl-N-methylsulfonyl-thiazole-4-carboxamide]
0.501 | 0.0316 | Cc1sc(N(Cc2ccc(Cl)cc2OC(F)F)c2ccc(C#N)cc2)nc1C(=O)NS(C)(=O)=O [Example 193, 2-[N-[[4-chloro-2-(difluoromethoxy)phenyl]methyl]-4-cyano-anilino]-5-methyl-N-methylsulfonyl-thiazole-4-carboxamide]
0.316 | 0.501 | Cc1oc(N(Cc2ccc(Cl)cc2)c2ccc(C#N)cc2)nc1C(=O)NS(C)(=O)=O [Example 286, 2-[N-[(4-chlorophenyl)methyl]-4-cyano-anilino]-5-methyl-N-methylsulfonyl-oxazole-4-carboxamide]
> 10 | 1 | Cc1sc(N(CCC2CCCCC2)Cc2ccc(OC(F)(F)F)cc2)nc1C(=O)NS(=O)(=O)Cc1cccc(F)c1 [Compound 735, 2-[2-cyclohexylethyl-[[4-(trifluoromethoxy)phenyl]methyl]amino]-N-[(3-fluorophenyl)methylsulfonyl]-5-methyl-thiazole-4-carboxamide]
0.501 | 0.0631 | Cc1sc(N(Cc2ccc(Br)cc2Cl)c2ccc(C#N)cc2)nc1C(=O)NS(C)(=O)=O [Example 183, 2-[N-[(4-bromo-2-chloro-phenyl)methyl]-4-cyano-anilino]-5-methyl-N-methylsulfonyl-thiazole-4-carboxamide]
